Tested on: ApoE−/− mice
Assay: Arteriosclerotic area of ApoE−/− mice aortic outflow tract
Format: in vivo
Conditions: high fat diet, vs HG (p<0.01), atorvastatin 50 mg/kg/d, total saponins 300 mg/kg/d, 6 weeks
Source text: ApoE−/− mice were divided into four groups randomly by weight.
(1) Negative control group (CG): mice in this group were fed normally for 7 weeks, and intragastrically administrated with normal saline.
(2) High fat control group (HG): mice in this group were fed with high fat diet containing 0.2% cholesterol for 7 weeks, and intragastrically administrated with normal saline every day simultaneously.
(4) I. kudingcha total saponin therapeutic group (SG): the course of treatment is similar to that of AG, with the only difference between SG and AG lies in that the dosage of the total saponins from I. kudingcha is 300 mg/kg/d.
Effect of total saponins from I. kudingcha leaves on arteriosclerotic area of ApoE−/− mice aortic outflow tract is shown in FIG. 7.

CC(C)c1c(C(=O)Nc2ccccc2)c(-c2ccccc2)c(-c2ccc(F)cc2)n1CC[C@@H](O)C[C@@H](O)CC(=O)O [atorvastatin]
inhibition rate of formation of atherosclerotic plaque of aortic outflow tract: about 40%

Source: patent US9109003B2, “Extraction method for Ilex kudingcha C. J. Tseng leaves, total saponins and use thereof” (Peking University, priority 2011, dated 2015)
